# According to paper PMC8111499, “GW117: A novel serotonin (5‐HT2C) receptor antagonist and melatonin (MT1/MT2) receptor agonist with potential antidepressant‐like activity in rodents” (CNS Neuroscience & Therapeutics, 2021):
# Key:
# MT1 receptor = biological target: T1, MT1 receptor (Homo sapiens, UniProt P48039); test: [35S]‐GTPγS binding assay, MT1; type: biochemical
# T1 construct: purchased Perkin‐Elmer ES‐620
# Procedure: This experiment was mentioned earlier. ^27 In short, HEK293 cell membrane stably expressing human 5‐HT2C receptors or rat hippocampal tissue membrane or MT1/MT2 receptors was re‐suspended in buffer (50 mmol/L Tris, 100 mmol/L NaCl, 5 mmol/L MgCl2·6H2O, 0.1 mmol/L EDTA‐Na2·6H2O, 0.2 mmol/L EGTA, pH 7.4) and incubated with the test compound (100 μM GDP, 0.2 nM [^35S]‐GTP, or [^3H]PIP) for 60 min at 28℃. At the end of the experiment, Whatman GF/C filters pre‐soaked with distilled water were used for rapid filtration followed by washing with 5 ml of ice‐cold Tris buffer. Determination of non‐specific binding in the presence of GTPγS and radioactivity was measured by liquid scintillation counting. Calculation of the concentration produces a half‐maximal effect (EC50) and the maximal increase above the baseline value.
# rats [1] = test: Forced swimming test in rats; type: in vivo, Sprague Dawley (SD) rats; conditions: single dose p.o., 10, 20, or 40 mg/kg, vs. vehicle
# Procedure: The forced swimming test (FST) was conducted as described earlier. ^30 Eighty naive rats were randomized into eight treatment groups (n = 9‐12/group). All rats received a single drug administration (p.o.). The procedure consisted of two sessions, to be specific, a pre‐test session and a test session. A cylindrical container (diameter, 20 cm; height, 40 cm; including 30 cm of water and kept at 25℃) was used. During the pre‐test phase, rats were required to perform forced swimming for 15 min. The test session was performed 24 h later, put the rats in the same cylindrical container for 5 min and immobility duration over 5 min recorded. […] Rats were considered immobile when they entered a floating posture, specifically, immobile, passive, and with their heads above water.
# mice = test: Locomotor activity in mice; type: in vivo, ICR mice; conditions: for Locomotor activity, Crossing number / Locomotor activity, Rearing number: Mice, mean ± S.E.M.
# Procedure: (§1) In order to confirm whether GW117 has an antidepressant activity, we used spontaneous activities in mice and rats to determine whether GW117 affects the central system. 64 ICR mice were randomly allocation to five therapy groups ([…]): control group, 5 mg/kg GW117, 10 mg/kg GW117, 20 mg/kg GW117, and 40 mg/kg GW117. All rats and mice received one administration (p.o.). After sixty minutes of gavage administration, each mouse or rat was located in the corner of an open field chamber (36 × 29 × 23 cm for mice; 76 × 76 × 46 cm for rats) to adapt to 5 min. The numbers of crossings and rearings were recorded during the subsequent 5 min.
# rats [2] = test: Locomotor activity in rats; type: in vivo; conditions: for Locomotor activity, Crossing number / Locomotor activity, Rearing number: Rats, mean ± S.E.M.
# Procedure: as §1
# [3] = previous study; cited from earlier work
# T1 sequence (P48039 whole entry): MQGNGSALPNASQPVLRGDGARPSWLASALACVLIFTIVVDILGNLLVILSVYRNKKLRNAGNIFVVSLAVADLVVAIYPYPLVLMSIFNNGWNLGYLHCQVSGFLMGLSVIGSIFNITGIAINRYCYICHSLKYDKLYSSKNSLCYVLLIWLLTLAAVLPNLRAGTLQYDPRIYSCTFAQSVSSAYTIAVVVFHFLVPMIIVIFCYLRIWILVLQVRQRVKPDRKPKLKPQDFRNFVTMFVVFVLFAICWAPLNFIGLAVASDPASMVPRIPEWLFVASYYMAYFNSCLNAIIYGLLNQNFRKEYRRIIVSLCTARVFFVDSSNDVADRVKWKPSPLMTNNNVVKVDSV
structure (smiles),measurement,setting,value
[2H]C([2H])([2H])Oc1cc2c(CCNC(C)=O)cccc2cc1Cl [GW117],character of effect on MT1 receptor,MT1 receptor; [35S]‐GTPγS binding,full agonist
same,Emax,"MT1 receptor; [35S]‐GTPγS binding, read-out: maximal increase over basal binding (% Emax), MT1 receptor",104 ± 7.34%
same,EC50,"MT1 receptor; read-out: EC50 of stimulation of specific [35S]‐GTPγS binding, MT1 receptor",2.49 nM
same,immobility time in FST,rats [1],markedly reduced the immobility time
same,"Locomotor activity, Crossing number",mice; 5 mg/kg p.o.,86.8 ± 4.4
same,"Locomotor activity, Rearing number",mice; 5 mg/kg p.o.,22.7 ± 1.8
same,"Locomotor activity, Crossing number",mice; 10 mg/kg p.o.,80.1 ± 4.8
same,"Locomotor activity, Rearing number",mice; 10 mg/kg p.o.,22.6 ± 2.1
same,"Locomotor activity, Rearing number",mice; 20 mg/kg p.o.,20.7 ± 1.5
same,"Locomotor activity, Crossing number",mice; 40 mg/kg p.o.,86.3 ± 4.4
same,"Locomotor activity, Rearing number",mice; 40 mg/kg p.o.,21.3 ± 1.4
same,effect on number of crossings and rearings in the spontaneous activity test,"mice; mice, 5, 10, 20, or 40 mg/kg by gavage",had no effect
same,"Locomotor activity, Crossing number",rats [2]; 5 mg/kg p.o.,70.3 ± 5.1
same,"Locomotor activity, Rearing number",rats [2]; 5 mg/kg p.o.,14.2 ± 1.4
same,"Locomotor activity, Crossing number",rats [2]; 10 mg/kg p.o.,71.3 ± 6.8
same,"Locomotor activity, Rearing number",rats [2]; 10 mg/kg p.o.,14.9 ± 1.5
same,"Locomotor activity, Crossing number",rats [2]; 20 mg/kg p.o.,60.9 ± 4.4
same,"Locomotor activity, Rearing number",rats [2]; 20 mg/kg p.o.,13.8 ± 1.3
same,"Locomotor activity, Crossing number",rats [2]; 40 mg/kg p.o.,63.5 ± 4.6
same,"Locomotor activity, Rearing number",rats [2]; 40 mg/kg p.o.,12.8 ± 1.3
same,effect on number of crossings and rearings in the spontaneous activity test,"rats [2]; rats, 5, 10, 20, or 40 mg/kg by gavage",had no effect
same,toxic effects compared with agomelatine,[3],lower toxic effects
